This note sets out measurements from ChEMBL document CHEMBL4673233, “Discovery of novel (6S/12aS)-heptachpyridone capable of inhibiting thrombosis in vivo” (Bioorg Med Chem Lett, 2020).

Data set [1] has as its system Rattus norvegicus. Kind of data set: Antithrombotic activity in rat model of thread-induced arterial thrombosis assessed as reduction artery thrombus at 167 umol/kg, po. It counts as functional, organism-based. As to conditions: dose 167.0 µmol/kg.
Data set [2] in a line: Drug metabolism in rat plasma assessed as formation of 6s/12as-bisdimethoxyethylheptachpyridone incubated for 1 hr by HPLC-FT-ICR-MS analysis. It counts as ADME, cell-free.
Data set [3] is described as follows: Toxicity in inferior vena cava ligation-induced venous thrombosis rat model assessed as bleeding time at 1 umol/kg. As to conditions: in vivo, dose 1 µmol/kg.
The test system of data set [4] is Rattus norvegicus. Kind of data set: Antithrombotic activity in rat model of thread-induced arterial thrombosis assessed as reduction artery thrombus at 1 umol/kg, po. It counts as functional, organism-based. As to conditions: dose 1.0 µmol/kg.
Data set [5] has as its system Rattus norvegicus. Kind of data set: Antithrombotic activity in rat model of inferior vena cava ligation-induced venous thrombosis assessed as reduction in venous thrombus weight at 1 umol/kg, po. In kind it is functional, organism-based. As to conditions: dose 1.0 µmol/kg.
Data set [6] can be described thus: Toxicity in inferior vena cava ligation-induced venous thrombosis rat model assessed as clotting time at 1 umol/kg. As to conditions: in vivo, dose 1 µmol/kg.
A short description of data set [7]: Toxicity in inferior vena cava ligation-induced venous thrombosis rat model assessed as international normalized ratio measure of prothrombin time and exogenous coagulation pathway at 1 umol/kg. As to conditions: in vivo, dose 1 µmol/kg.
Data set [8] in a line: Drug metabolism in rat plasma assessed as formation of 6s/12as-heptachpyridone incubated for 1 hr by HPLC-FT-ICR-MS analysis. It counts as ADME, cell-free.
Data set [9] has as its system Rattus norvegicus. Kind of data set: Antithrombotic activity in rat model of inferior vena cava ligation-induced venous thrombosis assessed as reduction in venous thrombus weight at 4.87 umol/kg, po. It counts as functional, organism-based. As to conditions: dose 4.87 µmol/kg.
Data set [10] is described as follows: Toxicity in inferior vena cava ligation-induced venous thrombosis rat model assessed as international normalized ratio measure of prothrombin time and exogenous coagulation pathway at 4.87 umol/kg. As to conditions: in vivo, dose 1 µmol/kg.
Data set [11] in a line: Toxicity in inferior vena cava ligation-induced venous thrombosis rat model assessed as clotting time at 4.87 umol/kg. As to conditions: in vivo, dose 4.87 µmol/kg.
The nature of data set [12]: Toxicity in inferior vena cava ligation-induced venous thrombosis rat model assessed as bleeding time at 4.87 umol/kg. As to conditions: in vivo, dose 4.87 µmol/kg.

The source made the active and inactive calls. The rule behind the calls is not given here.

For `CC(=O)Oc1ccccc1C(=O)O`, the outcome in the data set with Rattus norvegicus [1] was Active.
As for `COC(C[C@@H]1N[C@H](C(=O)O)Cc2c1[nH]c1ccccc21)OC`, the Drug metabolism result in data set [2] was “Metabolite_Detected”.
As to `O=CC[C@H]1c2[nH]c3ccccc3c2C[C@H]2C(=O)N3[C@@H](Cc4c([nH]c5ccccc45)[C@@H]3CC=O)C(=O)N21`, the Activity result in data set [3], in data set [6] and in data set [7] was “Non-Toxic” throughout. Besides, the result with Rattus norvegicus [4] and with Rattus norvegicus [5] was Active.
In the case of `COC(C[C@H]1c2[nH]c3ccccc3c2C[C@H]2C(=O)N3[C@@H](Cc4c([nH]c5ccccc45)[C@@H]3CC(OC)OC)C(=O)N21)OC`, the Drug metabolism entry in data set [8] was “Metabolite_Detected”.
For the molecule `CC(=O)CC(c1ccccc1)c1c(O)c2ccccc2oc1=O` (configuration not stated) [WARFARIN], the outcome in the data set with Rattus norvegicus [9] was Active. Further, the Activity entry in [10], in [11] and in data set [12] was “Toxic” throughout.
